Test results reported in PubChem BioAssay (NCI).
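Interpolation was linear, between the two tested concentrations surrounding the appropriate level; five concentrations were tested over 48 hours in 96-well plates. The concentration for 50% growth inhibition is given as GI50. TGI: concentration producing complete growth inhibition.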

Legend:
Assay in all cases: growth of human tumour cells (NCI), 48 h
[1] = system: U251 CNS
[2] = system: A498 renal
[3] = system: NCI-H522 lung
[4] = system: CAKI-1 renal
[5] = system: HL-60(TB) leukemia
[6] = system: SNB-19 CNS
[7] = system: HCC-2998 colon
[8] = system: NCI-H23 lung
[9] = system: MDA-MB-231 breast
[10] = system: A549 NSCLC
[11] = system: RXF 393 renal
[12] = system: ACHN renal
[13] = system: PC-3 prostate
[14] = system: SK-MEL-5 melanoma
[15] = system: SK-MEL-28 melanoma
[16] = system: M14 melanoma
[17] = system: TK-10 renal
[18] = system: SK-OV-3 ovarian
[19] = system: SF-295 CNS
[20] = system: HCT-15 colon
[21] = system: SR leukemia
[22] = system: MOLT-4 leukemia
[23] = system: RPMI-8226 leukemia
[24] = system: NCI/ADR-RES ovarian
[25] = system: UACC-257 melanoma
[26] = system: CCRF-CEM leukemia
[27] = system: UACC-62 melanoma
[28] = system: LOX IMVI melanoma
[29] = system: COLO 205 colon
[30] = system: BT-549 breast
[31] = system: SW-620 colon
[32] = system: NCI-H460 lung
[33] = system: K-562 leukemia
[34] = system: HS 578T breast
[35] = system: HCT-116 colon
[36] = system: UO-31 renal
[37] = system: SF-539 CNS
[38] = system: IGROV1 ovarian
[39] = system: 786-0 renal
[40] = system: DU-145 prostate
[41] = system: MDA-MB-435
[42] = system: SK-MEL-2 melanoma
[43] = system: OVCAR-8 ovarian
[44] = system: SF-268 CNS
[45] = system: HOP-62 NSCLC
[46] = system: MALME-3M melanoma
[47] = system: HT29 colon
[48] = system: SN12C renal
[49] = system: T-47D breast
[50] = system: SNB-75 CNS
[51] = system: EKVX NSCLC
[52] = system: KM12 colon
[53] = system: OVCAR-5 ovarian
[54] = system: OVCAR-4 ovarian
[55] = system: NCI-H226 lung
[56] = system: MCF7 breast
[57] = system: HOP-92 NSCLC
[58] = system: OVCAR-3 ovarian

SMILES: Nc1ncc(-c2ccc3ncnc(N4CCc5cc(F)c(F)cc54)c3c2)cn1
- GI50 [1]: 4810 nM
- TGI [1]: > 100000 nM
- GI50 [2]: 251 nM
- TGI [2]: 2.13 µM
- GI50 [3]: 4940 nM
- TGI [3]: > 100000 nM
- GI50 [4]: 890 nM
- TGI [4]: > 100000 nM
- GI50 [5]: 5520 nM
- TGI [5]: > 100000 nM
- GI50 [6]: 5.35 µM
- TGI [6]: > 100 µM
- GI50 [7]: 3080 nM
- TGI [7]: > 100000 nM
- GI50 [8]: 4760 nM
- TGI [8]: > 100 µM
- GI50 [9]: 1870 nM
- TGI [9]: > 100 µM
- GI50 [10]: 2350 nM
- TGI [10]: > 100 µM
- GI50 [11]: 381 nM
- TGI [11]: 3150 nM
- GI50 [12]: 1730 nM
- TGI [12]: > 100 µM
- GI50 [13]: 1440 nM
- TGI [13]: > 100 µM
- GI50 [14]: 6.1 µM
- TGI [14]: > 100000 nM
- GI50 [15]: 3260 nM
- TGI [15]: > 100000 nM
- GI50 [16]: 3530 nM
- TGI [16]: > 100000 nM
- GI50 [17]: 709 nM
- TGI [17]: > 100 µM
- GI50 [18]: 1660 nM
- TGI [18]: > 100 µM
- GI50 [19]: 2300 nM
- TGI [19]: > 100000 nM
- GI50 [20]: 2280 nM
- TGI [20]: > 100000 nM
- GI50 [21]: 1820 nM
- TGI [21]: > 100000 nM
- GI50 [22]: 3320 nM
- TGI [22]: > 100 µM
- GI50 [23]: 559 nM
- TGI [23]: > 100 µM
- GI50 [24]: 3910 nM
- TGI [24]: > 100000 nM
- GI50 [25]: 7.3 µM
- TGI [25]: > 100000 nM
- GI50 [26]: 2380 nM
- TGI [26]: > 100 µM
- GI50 [27]: 1370 nM
- TGI [27]: > 100000 nM
- GI50 [28]: 1770 nM
- TGI [28]: 14.1 µM
- GI50 [29]: 5.77 µM
- TGI [29]: > 100000 nM
- GI50 [30]: 1860 nM
- TGI [30]: > 100 µM
- GI50 [31]: 6.86 µM
- TGI [31]: > 100000 nM
- GI50 [32]: 2110 nM
- TGI [32]: > 100000 nM
- GI50 [33]: > 100000 nM
- TGI [33]: > 100000 nM
- GI50 [34]: 751 nM
- TGI [34]: 4.66 µM
- GI50 [35]: 4510 nM
- TGI [35]: > 100000 nM
- GI50 [36]: 396 nM
- TGI [36]: > 100 µM
- GI50 [37]: 2490 nM
- TGI [37]: > 100000 nM
- GI50 [38]: 459 nM
- TGI [38]: 3.34 µM
- GI50 [39]: 3420 nM
- TGI [39]: > 100000 nM
- GI50 [40]: 2380 nM
- TGI [40]: > 100 µM
- GI50 [41]: 2730 nM
- TGI [41]: > 100000 nM
- GI50 [42]: 2440 nM
- TGI [42]: 12.3 µM
- GI50 [43]: 3060 nM
- TGI [43]: > 100 µM
- GI50 [44]: 1800 nM
- TGI [44]: > 100 µM
- GI50 [45]: 1360 nM
- TGI [45]: > 100 µM
- GI50 [46]: 1080 nM
- TGI [46]: > 100000 nM
- GI50 [47]: 2900 nM
- TGI [47]: > 100000 nM
- GI50 [48]: 2110 nM
- TGI [48]: > 100000 nM
- GI50 [49]: 858 nM
- TGI [49]: > 100 µM
- GI50 [50]: 455 nM
- TGI [50]: 4.03 µM
- GI50 [51]: 1700 nM
- TGI [51]: > 100 µM
- GI50 [52]: 3920 nM
- TGI [52]: > 100 µM
- GI50 [53]: 1530 nM
- TGI [53]: > 100 µM
- GI50 [54]: 1760 nM
- TGI [54]: > 100 µM
- GI50 [55]: 3000 nM
- TGI [55]: > 100 µM
- GI50 [56]: 1230 nM
- TGI [56]: > 100000 nM

SMILES: CSc1ccc(/C(=N/N=C(N)N)c2ccc(Cl)cc2)cc1
- GI50 [1]: 382 nM
- TGI [1]: 2170 nM
- GI50 [2]: 1810 nM
- TGI [2]: 4.98 µM
- GI50 [3]: 213 nM
- TGI [3]: 516 nM
- GI50 [4]: 536 nM
- TGI [4]: 2980 nM
- GI50 [5]: 268 nM
- TGI [5]: 784 nM
- GI50 [6]: 0.696 µM
- TGI [6]: 14.2 µM
- GI50 [7]: 333 nM
- TGI [7]: 1160 nM
- GI50 [8]: 617 nM
- TGI [8]: 12 µM
- GI50 [9]: 499 nM
- TGI [9]: 3.18 µM
- GI50 [10]: 399 nM
- TGI [10]: 4.81 µM
- GI50 [11]: 509 nM
- TGI [11]: 2140 nM
- GI50 [12]: 744 nM
- TGI [12]: 4.46 µM
- GI50 [13]: 447 nM
- TGI [13]: 5.22 µM
- GI50 [14]: 0.949 µM
- TGI [14]: 2160 nM
- GI50 [15]: 957 nM
- TGI [15]: 2350 nM
- GI50 [16]: 362 nM
- TGI [16]: 1270 nM
- GI50 [17]: 2830 nM
- TGI [17]: 12.6 µM
- GI50 [18]: 593 nM
- TGI [18]: 14.3 µM
- GI50 [19]: 368 nM
- TGI [19]: 1570 nM
- GI50 [20]: 340 nM
- TGI [20]: 2140 nM
- GI50 [21]: 349 nM
- TGI [21]: 2300 nM
- GI50 [22]: 422 nM
- TGI [22]: 3.52 µM
- GI50 [23]: 456 nM
- TGI [23]: 3.13 µM
- GI50 [24]: 748 nM
- TGI [24]: 2870 nM
- GI50 [25]: 0.891 µM
- TGI [25]: 2520 nM
- GI50 [26]: 375 nM
- TGI [26]: 5.99 µM
- GI50 [27]: 707 nM
- TGI [27]: 2420 nM
- GI50 [28]: 397 nM
- TGI [28]: 1.52 µM
- GI50 [57]: 663 nM
- TGI [57]: 5.51 µM
- GI50 [29]: 0.298 µM
- TGI [29]: 864 nM
- GI50 [30]: 1700 nM
- TGI [30]: 3.35 µM
- GI50 [31]: 0.48 µM
- TGI [31]: 1960 nM
- GI50 [32]: 376 nM
- TGI [32]: 1510 nM
- GI50 [33]: 342 nM
- TGI [33]: 1700 nM
- GI50 [34]: 1280 nM
- TGI [34]: 14.9 µM
- GI50 [35]: 364 nM
- TGI [35]: 1270 nM
- GI50 [36]: 1000 nM
- TGI [36]: 4.03 µM
- GI50 [58]: 500 nM
- TGI [58]: 4.13 µM
- GI50 [37]: 291 nM
- TGI [37]: 935 nM
- GI50 [38]: 860 nM
- TGI [38]: 5.86 µM
- GI50 [39]: 754 nM
- TGI [39]: 2350 nM
- GI50 [40]: 468 nM
- TGI [40]: 4.24 µM
- GI50 [41]: 242 nM
- TGI [41]: 593 nM
- GI50 [42]: 473 nM
- TGI [42]: 3.84 µM
- GI50 [43]: 607 nM
- TGI [43]: 3.87 µM
- GI50 [44]: 1060 nM
- TGI [44]: 6.63 µM
- GI50 [45]: 569 nM
- TGI [45]: 5.66 µM
- GI50 [46]: 869 nM
- TGI [46]: 2410 nM
- GI50 [47]: 332 nM
- TGI [47]: 1130 nM
- GI50 [48]: 500 nM
- TGI [48]: 2210 nM
- GI50 [49]: 558 nM
- TGI [49]: 4.94 µM
- GI50 [50]: 380 nM
- TGI [50]: 4.14 µM
- GI50 [51]: 1030 nM
- TGI [51]: 14.7 µM
- GI50 [52]: 416 nM
- TGI [52]: 4.01 µM
- GI50 [53]: 496 nM
- TGI [53]: 7.27 µM
- GI50 [54]: 1550 nM
- TGI [54]: 13.2 µM
- GI50 [55]: 1180 nM
- TGI [55]: 6.4 µM
- GI50 [56]: 355 nM
- TGI [56]: 2060 nM
